Patent US7470684B2, “Spiropiperidine derivatives as NK3 antagonists” (Hoffmann-La Roche Inc., priority 2007, dated 2008)
pKi: −log10 of the molar value.

Biological target: T1, human NK3 receptor (Homo sapiens, UniProt P29371)
T1 construct: expressed in transfected cells; host or cells: HEK293 cells, transiently transfected; membranes
T1 sequence (P29371 1-465): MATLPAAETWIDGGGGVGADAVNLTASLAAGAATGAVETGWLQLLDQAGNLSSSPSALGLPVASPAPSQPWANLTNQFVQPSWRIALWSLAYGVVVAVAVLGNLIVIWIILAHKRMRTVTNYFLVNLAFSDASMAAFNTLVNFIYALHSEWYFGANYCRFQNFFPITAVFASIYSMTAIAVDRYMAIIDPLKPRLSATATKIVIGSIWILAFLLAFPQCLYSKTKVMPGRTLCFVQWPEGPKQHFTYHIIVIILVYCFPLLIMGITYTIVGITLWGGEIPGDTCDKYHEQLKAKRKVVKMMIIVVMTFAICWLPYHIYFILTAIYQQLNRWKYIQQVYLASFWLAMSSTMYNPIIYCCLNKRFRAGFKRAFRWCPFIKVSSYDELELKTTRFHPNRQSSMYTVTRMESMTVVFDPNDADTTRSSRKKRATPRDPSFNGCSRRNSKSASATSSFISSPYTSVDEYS
Assay: [3H]SR142801 competition binding assay
Details: [3H]SR142801 displacement, membranes of HEK293 cells transiently expressing recombinant human NK3 receptor; read-out: hNK3 Ki
How it was run: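 Membranes from HEK293 cells transiently expressing human NK3 receptor incubated 75 min at RT with [3H]SR142801 at its KD and compound (0.0003-10 μM) in pH 7.4 Tris/MnCl2 buffer. Filtration and scintillation counting, nonspecific binding with 10 μM SB222200. IC50 from Hill fit, Ki by Cheng-Prusoff, duplicates.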

With CN(Cc1ccc(Cl)cc1)C(=O)[C@@H](CCN1CCC2(CC1)OC(=O)N(C)c1ccc(F)cc12)c1ccc(Cl)c(Cl)c1 [Example 148, (2S)-N-(4-chlorobenzyl)-2-(3,4-dichlorophenyl)-4-(6-fluoro-1-methyl-2-oxo-1,2-dihydro-1′H-spiro[3,1-benzoxazine-4,4′-piperidin]-1′-yl)-N-methylbutanamide] the pKi was 9.40.
